“Also recorded” adds a separate entry of the source. Like-named read-outs stand apart in the source and are kept apart here.
Key:
[1] = system: E. coli DHB4 oxyR^−; assay: microbe, parasite or virus in culture; type: cell-based, Escherichia coli; conditions: read-out: MIC of ebselen in the presence of silver
Protocol: (§1) Since Trx and GSH/Grx are major thiol-dependent systems, investigated were the effects of Ag^+ with ebselen in combination on Trx or GSH system-deficient E. coli redox mutants.
One major function of GSH and Trx systems is to scavenge ROS to keep cellular redox balance and protect against oxidative stress. The inhibition of the Trx system and depletion of GSH may responsible for the elevation of ROS.
(§2) Serial dilutions of ebselen and AgNO3 were added to the individual wells. The minimum inhibitory concentration (MIC) was determined after 24 h culture at 37° C.

[2] = system: E. coli DHB4 WT; assay: MIC of silver and ebselen on E. coli DHB4 redox phenotypes; type: cell-based, Escherichia coli; conditions: Escherichia coli, DHB4WT, 24 h, read-out: MIC of ebselen in the presence of silver
Protocol: as §1, §2

[3] = system: E. coli DHB4 trxA^−gshA^−; assay: microbe, parasite or virus in culture; type: cell-based, Escherichia coli; conditions: read-out: MIC of ebselen in the presence of silver
Protocol: as §1, §2

[4] = system: E. coli DHB4 trxC^−; assay: microbe, parasite or virus in culture; type: cell-based, Escherichia coli; conditions: read-out: MIC of ebselen in the presence of silver
Protocol: as §1, §2

[5] = system: E. coli DHB4 trxB^−; assay: microbe, parasite or virus in culture; type: cell-based, Escherichia coli; conditions: Escherichia coli, 24 h, read-out: MIC of ebselen in the presence of silver
Protocol: as §1, §2

[6] = system: E. coli DHB4 trxA^−; assay: microbe, parasite or virus in culture; type: cell-based, Escherichia coli; conditions: Escherichia coli, 24 h, read-out: MIC of ebselen in the presence of silver
Protocol: as §1, §2

[7] = system: E. coli DHB4 trxA^−B^−C^−; assay: microbe, parasite or virus in culture; type: cell-based, Escherichia coli; conditions: Escherichia coli, 24 h, read-out: MIC of ebselen in the presence of silver
Protocol: as §1, §2

[8] = system: E. coli DHB4 gshA^−; assay: microbe, parasite or virus in culture; type: cell-based, Escherichia coli; conditions: read-out: MIC of ebselen in the presence of silver
Protocol: as §1, §2

[9] = system: E. coli DHB4 grxA^−trxA^−; assay: microbe, parasite or virus in culture; type: cell-based, Escherichia coli; conditions: Escherichia coli, 24 h, read-out: MIC of ebselen in the presence of silver
Protocol: as §1, §2

[10] = system: E. coli DHB4 gor^−; assay: microbe, parasite or virus in culture; type: cell-based, Escherichia coli; conditions: Escherichia coli, 24 h, read-out: MIC of ebselen in the presence of silver
Protocol: as §1, §2

[11] = system: E. coli DHB4 gor^−grxA^−B^−C^−; assay: microbe, parasite or virus in culture; type: cell-based, Escherichia coli; conditions: Escherichia coli, 24 h, read-out: MIC of ebselen in the presence of silver
Protocol: as §1, §2

[12] = target: T1, E. coli Trx (Escherichia coli, UniProt P0AA25); type: cell-based; conditions: Ag^+ or ebselen alone
T1 construct: endogenous in cells; host or cells: E. coli DHB4
T1 sequence (P0AA25 2-109): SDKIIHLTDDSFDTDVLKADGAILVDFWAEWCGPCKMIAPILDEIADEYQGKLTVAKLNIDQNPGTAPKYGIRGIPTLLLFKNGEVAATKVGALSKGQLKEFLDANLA

[13] = system: GSH; assay: GSH amount in treated E. coli cell extracts, GR-coupled DTNB reduction; type: cell-based, Escherichia coli
[14] = system: E. coli DHB4; assay: E. coli growth curves in 15 ml tubes, OD600 nm; type: cell-based, Escherichia coli
Protocol: The large scale growth inhibition of E. coli by Ag^+ with ebselen in combination was also observed in shaking testing 15 ml tubes. […] PI is a membrane-impermeable fluorescent dye that has been widely used to detect permeation of cell membrane and dead cells.
E. coli DHB4 cells were grown in 15 ml tubes until an OD600 nm of 0.4, and treated with 5 μM AgNO3 and serial concentration of ebselen (0, 20, 40, 80 μM) in combination. The survival of untreated E. coli was compared with the antibiotic-treated cells by measuring OD600 nm and counting the colonies. For colony formation assay, cells were harvested at 10 min, 1 h, 2 h, and 4 h by centrifugation at 6,000 rpm for 5 min and thoroughly washed 3 times with PBS. The cells were serially diluted in PBS, and 100 μl cultures were plated on LB plates. The colonies were counted after overnight incubation, and CFU/ml was calculated using the following formula: [(colonies)*(dilution factor)]/(amount plated).

[15] = system: E. coli DHB4; assay: E. coli DHB4 growth in micro-well plates, OD600 nm, 16 h; type: cell-based, Escherichia coli; conditions: ebselen alone (2, 4, 8 μM); 16 h
Protocol: The effect of silver nitrate with ebselen in combination on the growth of Gram-negative model bacteria, E. coli, was investigated in the microplates. DHB4 overnight cultures were diluted 1:1000 times in Luria-Bertani (LB) medium, and treated with ionic silver (Ag^+) as a nitrate salt (AgNO3) for 16 h.
E. coli DHB4 cells overnight cultures were diluted 1:1000 times in Luria-Bertani (LB) medium and treated with serial concentrations of AgNO3 and/or ebselen for 16 h. The cell viability was determined by measuring the absorbance at 600 nm. The culture treated with 0.8% (v/v) DMSO was used as a control.
E. coli DHB4 cells were grown until an OD600 nm of 0.4, and treated with serial dilutions of ebselen (0, 2, 4, 8 μM) for 16 h. The cell viability was determined by measuring the absorbance at 600 nm. The culture treated with 0.8% (v/v) DMSO was used as a control.

O=c1c2ccccc2[se]n1-c1ccccc1 [ebselen, 2-phenyl-1,2-benzisoselenazol-3(2H)-one]
MIC ([1]; Escherichia coli, 24 h, Silver 0 μM, oxyR^−, 24 h): 40 µM | MIC ([1]; Escherichia coli, 24 h, Silver 5 μM, oxyR^−, 24 h): 1 µM | MIC ([1]; Escherichia coli, 24 h, Silver 10 μM, oxyR^−, 24 h): 0.5 µM | MIC ([1]; Escherichia coli, 24 h): 4 µM | MIC [1]: 2 µM | MIC ([2]; Silver 0 μM): 80 µM | MIC ([2]; Silver 0.625 μM): 8 µM | MIC ([2]; Silver 1.25 μM): 4 µM | MIC ([2]; Silver 2.5 μM): 4 µM | MIC ([2]; Silver 5 μM): 2 µM | MIC ([2]; Silver 10 μM): 1 µM | MIC ([2]; Silver 20 μM): 0.5 µM | MIC ([3]; Escherichia coli, 24 h, Silver 0 μM, trxA^−gshA^−, 24 h): 40 µM | MIC ([3]; Escherichia coli, 24 h, Silver 5 μM, trxA^−gshA^−, 24 h): 1 µM | MIC ([3]; Escherichia coli, 24 h, Silver 10 μM, trxA^−gshA^−, 24 h): 0.5 µM | MIC ([3]; Escherichia coli, 24 h): 4 µM | MIC [3]: 2 µM | MIC ([4]; Escherichia coli, 24 h, Silver 0 μM, trxC^−, 24 h): 80 µM | MIC ([4]; Escherichia coli, 24 h, Silver 5 μM, trxC^−, 24 h): 2 µM | MIC ([4]; Escherichia coli, 24 h, Silver 10 μM, trxC^−, 24 h): 1 µM | MIC ([4]; Escherichia coli, 24 h, Silver 20 μM, trxC^−, 24 h): 0.5 µM | MIC ([4]; Escherichia coli, 24 h): 8 µM | MIC [4]: 4 µM | MIC ([5]; Silver 0 μM): 80 µM | MIC ([5]; Silver 5 μM): 1 µM | MIC ([5]; Silver 10 μM): 0.5 µM | MIC ([5]; Silver 20 μM): 0.5 µM | MIC ([6]; Silver 0 μM): 80 µM | MIC ([6]; Silver 5 μM): 1 µM | MIC ([6]; Silver 10 μM): 1 µM | MIC ([6]; Silver 20 μM): 0.5 µM | MIC ([7]; Silver 0 μM): 80 µM | MIC ([7]; Silver 5 μM): 1 µM | MIC ([7]; Silver 10 μM): 0.5 µM | MIC ([7]; Silver 20 μM): 0.5 µM | MIC ([8]; Escherichia coli, 24 h, Silver 0 μM, gshA^−, 24 h): 40 µM | MIC ([8]; Escherichia coli, 24 h, Silver 5 μM, gshA^−, 24 h): 1 µM | MIC ([8]; Escherichia coli, 24 h, Silver 10 μM, gshA^−, 24 h): 0.5 µM | MIC ([8]; Escherichia coli, 24 h): 4 µM | MIC [8]: 2 µM | MIC ([9]; Silver 0 μM): 40 µM | MIC ([9]; Silver 5 μM): 1 µM | MIC ([9]; Silver 10 μM): 0.5 µM | MIC ([10]; Silver 0 μM): 80 µM | MIC ([10]; Silver 5 μM): 1 µM | MIC ([10]; Silver 10 μM): 1 µM | MIC ([10]; Silver 20 μM): 0.5 µM | MIC ([11]; Silver 0 μM): 40 µM | MIC ([11]; Silver 5 μM): 1 µM | MIC ([11]; Silver 10 μM): 0.5 µM | Trx activities in cell extracts [12]: not influenced | GSH levels ([13]; 5 μM Ag^+ alone or 20 μM ebselen alone, compared with control): neither 5 μM Ag^+ nor 20 μM ebselen modulated GSH levels | GSH levels ([13]; ebselen alone at 80 and 40 μM): reduced GSH levels | E. coli growth (OD600 nm) ([14]; 40 μM ebselen or 5 μM Ag^+ alone): did not inhibit bacterial growth | E. coli growth (OD600 nm) ([14]; 80 μM ebselen alone, back to normal 12 h post-treatment): could inhibit E. coli growth in first 8 h | effect on E. coli growth [15]: no effects on bacterial growth; also recorded: no effect on the growth of E. coli
